The text below walks through data of article doi:10.1101/2025.11.21.689824v1, “Fluorescent Biosensor-Guided Engineering of Enzyme Cascades for Electrochemical Applications” (biorxiv, 2025).

Assay [1] deals with V0 fusion (MDH-G4SG4S-fumarase). The assay is described as follows: inhibition of fumarate to NADH cascade, Lineweaver-Burk. Type of assay: biochemical, Escherichia coli. To be noted: 500 µM NAD+, fumarate 0.25-8 mM, 100 mM potassium phosphate, 0.5 nM enzyme; competitive at the MDH part; cascade read-out; read-out: apparent Ki. As to the method:
inhibition of fumarate to NADH cascade, Lineweaver-Burk on V0 fusion (MDH-G4SG4S-fumarase) | the apparent inhibition constant (Ki) of citrate on the enzymatic cascade was determined

In assay [2] the target is H23 fusion (MDH-scaffolded KKRQKKKRK linker-fumarase). Described as above. The assay is classed as biochemical, Escherichia coli. The note with it: 500 µM NAD+, fumarate 0.25-8 mM, 100 mM potassium phosphate, 0.5 nM enzyme; competitive at the MDH part; cascade read-out; read-out: apparent Ki.
The target in assay [3] is T1, WT Fumarase (FumC, class II) (Escherichia coli, UniProt P05042).
T1 construct: full length, N-terminal leader […]; (His tag, T7 gene 10 leader, Xpress) in pBAD, expressed in E. coli XL1-Blue; homotetramer
T1 sequence (P05042 1-467): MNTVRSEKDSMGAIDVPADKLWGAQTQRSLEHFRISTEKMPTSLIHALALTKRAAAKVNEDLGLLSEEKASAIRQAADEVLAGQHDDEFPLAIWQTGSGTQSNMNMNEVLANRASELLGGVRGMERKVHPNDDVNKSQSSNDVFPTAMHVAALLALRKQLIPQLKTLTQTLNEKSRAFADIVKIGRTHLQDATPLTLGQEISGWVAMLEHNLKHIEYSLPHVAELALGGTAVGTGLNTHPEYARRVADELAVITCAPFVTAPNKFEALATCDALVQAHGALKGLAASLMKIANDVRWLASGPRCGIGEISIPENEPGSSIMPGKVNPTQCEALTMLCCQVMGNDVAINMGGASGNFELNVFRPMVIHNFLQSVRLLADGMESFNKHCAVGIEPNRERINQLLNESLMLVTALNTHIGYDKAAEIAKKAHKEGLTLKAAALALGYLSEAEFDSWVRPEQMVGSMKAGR
In words: UV absorbance of fumarate, Lineweaver-Burk. Type of assay: biochemical. To be noted: potassium phosphate buffer, 20 nM enzyme; free enzyme.

Assay [4] has as its system T2, Single-chain E. coli Fumarase #2.
T2 construct: gene fumC
To be noted: potassium phosphate buffer, 1 µM enzyme.

Assay [5] has as its system H23 fusion (MDH-scaffolded KKRQKKKRK linker-fumarase). To be noted: fumarase component; potassium phosphate buffer, 20 nM enzyme; free enzyme.
Assay [6] deals with V0 fusion (MDH-G4SG4S-fumarase). To be noted: fumarase component; potassium phosphate buffer, 20 nM enzyme; free enzyme.
In assay [7] the test system is Single-chain T. thermophilus Fumarase #1 H23 MDH Linkage (T1-H23). The note with it: fumarase component; potassium phosphate buffer, 1 µM enzyme.
Assay [8] deals with T3, Single-chain T. thermophilus Fumarase #1.
T3 construct: gene fumC
The note with it: potassium phosphate buffer, 1 µM enzyme.

The subject of assay [9] is Single-chain T. thermophilus Fumarase #1 V0 MDH Linkage (T1-V0). To be noted: fumarase component; potassium phosphate buffer, 1 µM enzyme.
In assay [10] the test system is V0 fusion (MDH-G4SG4S-fumarase). To be noted: MDH component, fumarase part inactivated; 50 mM NAD+, potassium phosphate buffer, 1 nM enzyme.
Assay [11] concerns Single-chain T. thermophilus Fumarase #1 V0 MDH Linkage (T1-V0). The note with it: MDH component; 50 mM NAD+, potassium phosphate buffer; not told whether the fumarase part was inactivated.
Assay [12] has as its system H23 fusion (MDH-scaffolded KKRQKKKRK linker-fumarase). To be noted: MDH component, fumarase part inactivated; 50 mM NAD+, potassium phosphate buffer, 1 nM enzyme.
Assay [13] concerns Single-chain T. thermophilus Fumarase #1 H23 MDH Linkage (T1-H23). To be noted: MDH component; 50 mM NAD+, potassium phosphate buffer; not told whether the fumarase part was inactivated.

Like-named read-outs stand apart in the source and are kept apart here.

Consider `O=C(O)CC(O)(CC(=O)O)C(=O)O` [citrate], for which the Ki turned out to be 1.65 ± 0.15 mM in assay [1] and 8.57 ± 0.71 mM in [2].
The Km is the substrate concentration at which the rate is half of its maximum. With `O=C(O)/C=C/C(=O)O` [fumarate], the Km in [3] amounted to 443 ± 101 µM; in assay [4] it was 758 ± 192 µM; in assay [5], 934 ± 66 µM; in [6] it was 759 ± 51 µM; in [7] it was 972 ± 62 µM; in [8] it was 809 ± 59 µM. Besides, the Km in assay [9] stood at 969 ± 61 µM.
With `O=C(O)C[C@H](O)C(=O)O` [malate], the Km worked out at 1210 ± 70 µM in [10], 1050 ± 390 µM in assay [11], 1220 ± 60 µM in assay [12] and 1150 ± 370 µM in [13].
